Target: T1, PFKL (Homo sapiens, UniProt P17858)
T1 construct: endogenous in cells; host or cells: THP-1 cell lysate
T1 sequence (P17858 2-780 limits assumed): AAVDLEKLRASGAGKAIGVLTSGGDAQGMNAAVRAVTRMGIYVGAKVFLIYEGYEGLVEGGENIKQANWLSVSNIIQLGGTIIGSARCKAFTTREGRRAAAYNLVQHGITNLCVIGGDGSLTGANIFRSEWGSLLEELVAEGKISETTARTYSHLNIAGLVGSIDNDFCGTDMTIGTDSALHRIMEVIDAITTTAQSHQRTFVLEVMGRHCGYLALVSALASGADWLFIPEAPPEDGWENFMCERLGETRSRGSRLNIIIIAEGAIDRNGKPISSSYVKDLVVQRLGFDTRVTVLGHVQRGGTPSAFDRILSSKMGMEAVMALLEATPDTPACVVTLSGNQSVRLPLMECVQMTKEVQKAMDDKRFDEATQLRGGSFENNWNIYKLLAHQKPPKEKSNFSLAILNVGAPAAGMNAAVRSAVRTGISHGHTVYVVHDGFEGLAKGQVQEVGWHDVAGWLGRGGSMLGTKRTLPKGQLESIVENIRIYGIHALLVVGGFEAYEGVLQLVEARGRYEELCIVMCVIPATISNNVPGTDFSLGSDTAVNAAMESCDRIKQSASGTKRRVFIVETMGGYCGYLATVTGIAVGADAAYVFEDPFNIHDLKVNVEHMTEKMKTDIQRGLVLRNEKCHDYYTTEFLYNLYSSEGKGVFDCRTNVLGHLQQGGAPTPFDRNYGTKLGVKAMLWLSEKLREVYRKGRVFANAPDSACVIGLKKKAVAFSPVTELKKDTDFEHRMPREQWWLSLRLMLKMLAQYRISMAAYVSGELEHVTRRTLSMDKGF
Experiment: Photoaffinity labeling pull-down in human blood leukocytes
Type: binding
Details: 1 μM probe, competition with 10 μM NA-11
Description: Buffy coats (100 mL) were diluted with ice-cold water (540 mL) for 30 s to lyse red blood cells. Following addition of 10 x HBSS buffer (50 mL) leukocytes were pelleted for 3 min at 300 x g, then washed twice in D-PBS and resuspended in RPMI medium. Cells (2 × 10^7) were plated on 15-cm dishes in DMSO vehicle, 1 μM PALP1 or 1 μM PALP6 for 30 min at 37°C. For competition, 10 μM NA-11 was added for 15 min, and then 1 μM PALP1 was added for an additional 30 min. To crosslink the photoaffinity probe, cells were UV-irradiated (High intensity mercury spot lamp, 100W, 365 nm, UVP) in RPMI for 5 min on ice. Cells were lysed in 200 μL 10 mM Tris pH 7.5, 150 mM NaCl, 1% NP-40, 2.5 mM MgCl2, 0.5 mM CaCl2, 2% glycerol, 10 μg/mL DNase-I, and 1 x EDTA-free Protease inhibitor cocktail. Lysates from 5 plates for each condition were pooled and incubate 10 min on ice.
Biotin-DADPS tagging, biotin-streptavidin affinity purification, and on-bead digestion were performed as described ([Hewings et al., 2018]). Briefly, lysates were cleared by centrifugation and the lysate concentration adjusted to 5 mg/mL. Streptavidin Ultralink Resin (100 μL of 50% slurry, Pierce) was washed twice with PBS and mixed with 1 mL of lysate for 30 min at room temperature. […]
For the classical TPP, quantitative data from each temperature were used to generate a thermal titration curve and calculate a melting point. […]

Structure (SMILES): CC(=O)Nc1ccc2c(c1)OCc1cc(-c3ccccc3C#CCCCO)nn1C2 [NA-11]
- photoaffinity labeling / pull-down of PFKL: competed effectively by NA-11

From PMC8802628, “Selective activation of PFKL suppresses the phagocytic oxidative burst” (Cell, 2021)
